Patent US20210186860A1, “Improved Delivery Systems for Moieties Including CBD Enhanced Combinations, Formulations and Chimeras” (LIFE TECH GLOBAL, LLC, priority 2017, published 2021)

Assay: Transdermal flux / transdermal delivery from patch
Assay type: in vitro ADME
Settings: enhancer at 3% in PIB adhesive

Compound | transdermal delivery from PIB
CCCCCCCCCCCCN1CCCCCC1=O [Azon] | double
CCCCCCCC/C=C\CCCCCCCC(=O)O [oleic acid] | double
